Data as given in patent US20230016424A1, “HYBRID AMIDE DERIVATIVES OF AMPHOTERICIN B” (The Board of Trustees of the University of Illinois, priority 2019, published 2023).

Columns and labels:
Plasma Stability = format: in vitro ADME
Experimental: Plasma Stability: Procedure: […] Plasma was warmed to 37° C. prior to the experiment and centrifuged for 5 mins at 4000 rpm. […] Each time point was monitored in triplicate (0, 10, 30, 60 and 120 min). 4 uL/well aliquot of the working solution was mixed to the blank plasma and incubated at 37° C. AT each time point samples were quenched with ACN stop solution containing 200 ng/ml Tolbutamide & 200 ng/ml Labetalol at 1:3 ratio and mix well on shaker for 10 min then centrifuge at 4000 rpm for 15 min. A 100 ul aliquot of supernatant was mixed with 100 μL of ultra-pure and submitted for LC-MS/MS analysis.

[1] = Liver Microsome stability (In Vitro Metabolism); format: in vitro ADME; settings: for Remaining (T = NCF60 min): no cofactor 60 min
Experimental: Working Compound solution: 10 uM in 50 mM potassium phosphate buffer with 9% MeOH and 1% DMSO
Microsome solution: working concentration 0.625 mg/ml
Stopping solution: Cold ACN with 200 ng/ml Tolbutamide and 200 ng/ml Labetalol (4° C.)
Procedure: In the well plates (T5, T10, T20, T30, T60, NCF60 (no cofactor 60)) 10 uL of the compound/control working solution was added (except T0 and matric blank) followed by microsome solution (80 uL) and the mixture was incubated at 37 C for about 10 mins. A solution of potassium phosphate (10 ul of 50 mM) was added to NCF60 well, incubated at 37 C and time counting started. After prewarming 10 ul of NADPH regenerating solution was added to each plate to start the reaction. At different time point 300 uL/well of stopping solution to terminate the reaction. The sampling plates were shaken for 10 mins and the centrifuged for 20 mins at 4000 rpm. The supernatant was half diluted with ultra pure water and the analyzed using LCMS.

[2] = test system: C. albicans SN250, C. albicans, C. krusei, C. glabrata, C. tropicalis, A. fumigatus 91, 1163, 1100; assay: Average MIC over the tested strains; format: cell-based; settings: for MIC (Average Minimum Inhibition Concentration): Table 7, C16 amide AmB variants; for Average MIC: Table 12, C16 amides of C2'epiAmB

CC1C=CC=CC=CC=CC=CC=CC=CC(OC2OC(C)C(O)C(N)C2O)CC2OC(O)(CC(O)CC(O)C(O)CCC(O)CC(O)CC(=O)OC(C)C(C)C1O)CC(O)C2C(=O)NCCN (centres unmarked) [AM]
% Remaining at 120 min (Plasma Stability; Human Plasma): 102%
Half Life (Plasma Stability; Human Plasma): >4.82 h
% Remaining at 120 min (Plasma Stability; Rat Plasma): 118%
Half Life (Plasma Stability; Rat Plasma): >4.82 h
CL ([1]; Dog liver microsomes): <9.6 µL/min/mg
CLint ([1]; Dog liver microsomes): <14 mL/min/kg
Remaining (T = 60 min) ([1]; Dog liver microsomes): 107%
T1/2 ([1]; Dog liver microsomes): >2.42 h
Remaining (T = NCF60 min) ([1]; Dog liver microsomes): 109%
CL ([1]; Human liver microsomes): <9.6 µL/min/mg
CLint ([1]; Human liver microsomes): <8.6 mL/min/kg
Remaining (T = 60 min) ([1]; Human liver microsomes): 101%
T1/2 ([1]; Human liver microsomes): >2.42 h
Remaining (T = NCF60 min) ([1]; Human liver microsomes): 115%
CL ([1]; Monkey liver microsomes): <9.6 µL/min/mg
CLint ([1]; Monkey liver microsomes): <13 mL/min/kg
Remaining (T = 60 min) ([1]; Monkey liver microsomes): 113%
T1/2 ([1]; Monkey liver microsomes): >2.42 h
Remaining (T = NCF60 min) ([1]; Monkey liver microsomes): 121%
CL ([1]; Mouse liver microsomes): <9.6 µL/min/mg
CLint ([1]; Mouse liver microsomes): <38 mL/min/kg
Remaining (T = 60 min) ([1]; Mouse liver microsomes): 109%
T1/2 ([1]; Mouse liver microsomes): >2.42 h
Remaining (T = NCF60 min) ([1]; Mouse liver microsomes): 176%
CL ([1]; Rat liver microsomes): <9.6 µL/min/mg
CLint ([1]; Rat liver microsomes): <17 mL/min/kg
Remaining (T = 60 min) ([1]; Rat liver microsomes): 113%
T1/2 ([1]; Rat liver microsomes): >2.42 h
Remaining (T = NCF60 min) ([1]; Rat liver microsomes): 83.1%

CC1C=CC=CC=CC=CC=CC=CC=CC(OC2OC(C)C(O)C(N)C2O)CC2OC(O)(CC(O)CC(O)C(O)CCC(O)CC(O)CC(=O)OC(C)C(C)C1O)CC(O)C2C(=O)NCB(O)O (centres unmarked) [EG]
MIC (Average Minimum Inhibition Concentration) [2]: 0.430 µM

CC1C=CC=CC=CC=CC=CC=CC=CC(OC2OC(C)C(O)C(N)C2O)CC2OC(O)(CC(O)CC(O)C(O)CCC(O)CC(O)CC(=O)OC(C)C(C)C1O)CC(O)C2C(=O)NC1C(O)OC(CO)C(O)C1O (mixture of isomers) [FK]
MIC (Average Minimum Inhibition Concentration) [2]: 0.211 µM

CC1C=CC=CC=CC=CC=CC=CC=CC(OC2OC(C)C(O)C(N)C2O)CC2OC(O)(CC(O)CC(O)C(O)CCC(O)CC(O)CC(=O)OC(C)C(C)C1O)CC(O)C2C(=O)NC1COCC1O (centres unmarked) [BP]
Average MIC [2]: 1.250 µM

CC1C=CC=CC=CC=CC=CC=CC=CC(OC2OC(C)C(O)C(N)C2O)CC2OC(O)(CC(O)CC(O)C(O)CCC(O)CC(O)CC(=O)OC(C)C(C)C1O)CC(O)C2C(=O)NCCNC(=N)N (centres unmarked) [DV]
MIC (Average Minimum Inhibition Concentration) [2]: 0.406 µM

COC(=O)C(Cc1c[nH]cn1)NC(=O)C1C(O)CC2(O)CC(O)CC(O)C(O)CCC(O)CC(O)CC(=O)OC(C)C(C)C(O)C(C)C=CC=CC=CC=CC=CC=CC=CC(OC3OC(C)C(O)C(N)C3O)CC1O2 (centres unmarked) [BX]
Average MIC [2]: 9.073 µM

COC(=O)C1(NC(=O)C2C(O)CC3(O)CC(O)CC(O)C(O)CCC(O)CC(O)CC(=O)OC(C)C(C)C(O)C(C)C=CC=CC=CC=CC=CC=CC=CC(OC4OC(C)C(O)C(N)C4O)CC2O3)CNC1 (centres unmarked) [FC]
MIC (Average Minimum Inhibition Concentration) [2]: 0.516 µM

CC1C=CC=CC=CC=CC=CC=CC=CC(OC2OC(C)C(O)C(N)C2O)CC2OC(O)(CC(O)CC(O)C(O)CCC(O)CC(O)CC(=O)OC(C)C(C)C1O)CC(O)C2C(=O)NC1CC1 (centres unmarked) [BV]
Average MIC [2]: 3.063 µM

CC1C=CC=CC=CC=CC=CC=CC=CC(OC2OC(C)C(O)C(N)C2O)CC2OC(O)(CC(O)CC(O)C(O)CCC(O)CC(O)CC(=O)OC(C)C(C)C1O)CC(O)C2C(=O)NC1COC1 (centres unmarked) [DX]
MIC (Average Minimum Inhibition Concentration) [2]: 0.422 µM

CC1C=CC=CC=CC=CC=CC=CC=CC(OC2OC(C)C(O)C(N)C2O)CC2OC(O)(CC(O)CC(O)C(O)CCC(O)CC(O)CC(=O)OC(C)C(C)C1O)CC(O)C2C(=O)N(CO)CCO (centres unmarked) [DW]
MIC (Average Minimum Inhibition Concentration) [2]: 0.419 µM

CNC(=O)C1C(O)CC2(O)CC(O)CC(O)C(O)CCC(O)CC(O)CC(=O)OC(C)C(C)C(O)C(C)C=CC=CC=CC=CC=CC=CC=CC(OC3OC(C)C(O)C(N)C3O)CC1O2 (centres unmarked) [GI]
MIC (Average Minimum Inhibition Concentration) [2]: 0.336 µM

CC1C=CC=CC=CC=CC=CC=CC=CC(OC2OC(C)C(O)C(N)C2O)CC2OC(O)(CC(O)CC(O)C(O)CCC(O)CC(O)CC(=O)OC(C)C(C)C1O)CC(O)C2C(=O)NCCN(C)C (centres unmarked) [DA]
MIC (Average Minimum Inhibition Concentration) [2]: 0.352 µM

CC1C=CC=CC=CC=CC=CC=CC=CC(OC2OC(C)C(O)C(N)C2O)CC2OC(O)(CC(O)CC(O)C(O)CCC(O)CC(O)CC(=O)OC(C)C(C)C1O)CC(O)C2C(=O)NCCn1ncnn1 (centres unmarked) [DN]
MIC (Average Minimum Inhibition Concentration) [2]: 0.391 µM

C=CCNC(=O)C1C(O)CC2(O)CC(O)CC(O)C(O)CCC(O)CC(O)CC(=O)OC(C)C(C)C(O)C(C)C=CC=CC=CC=CC=CC=CC=CC(OC3OC(C)C(O)C(N)C3O)CC1O2 (centres unmarked) [EL]
MIC (Average Minimum Inhibition Concentration) [2]: 0.453 µM

CCC(O)CNC(=O)C1C(O)CC2(O)CC(O)CC(O)C(O)CCC(O)CC(O)CC(=O)OC(C)C(C)C(O)C(C)C=CC=CC=CC=CC=CC=CC=CC(OC3OC(C)C(O)C(N)C3O)CC1O2 (mixture of isomers) [FX]
MIC (Average Minimum Inhibition Concentration) [2]: 0.313 µM

CC1C=CC=CC=CC=CC=CC=CC=CC(OC2OC(C)C(O)C(N)C2O)CC2OC(O)(CC(O)CC(O)C(O)CCC(O)CC(O)CC(=O)OC(C)C(C)C1O)CC(O)C2C(=O)NC1CCCC(O)C1 (centres unmarked) [GM]
MIC (Average Minimum Inhibition Concentration) [2]: 0.344 µM

CC1C=CC=CC=CC=CC=CC=CC=CC(OC2OC(C)C(O)C(N)C2O)CC2OC(O)(CC(O)CC(O)C(O)CCC(O)CC(O)CC(=O)OC(C)C(C)C1O)CC(O)C2C(=O)NC1C(O)C(O)OC(CO)C1O (centres unmarked) [FT]
MIC (Average Minimum Inhibition Concentration) [2]: 0.289 µM

CC1C=CC=CC=CC=CC=CC=CC=CC(OC2OC(C)C(O)C(N)C2O)CC2OC(O)(CC(O)CC(O)C(O)CCC(O)CC(O)CC(=O)OC(C)C(C)C1O)CC(O)C2C(=O)NC1CCCC1O (mixture of isomers) [EV]
MIC (Average Minimum Inhibition Concentration) [2]: 0.500 µM

CC1C=CC=CC=CC=CC=CC=CC=CC(OC2OC(C)C(O)C(N)C2O)CC2OC(O)(CC(O)CC(O)C(O)CCC(O)CC(O)CC(=O)OC(C)C(C)C1O)CC(O)C2C(=O)NCC(O)CO (centres unmarked) [GH]
MIC (Average Minimum Inhibition Concentration) [2]: 0.329 µM

CC1C=CC=CC=CC=CC=CC=CC=CC(OC2OC(C)C(O)C(N)C2O)CC2OC(O)(CC(O)CC(O)C(O)CCC(O)CC(O)CC(=O)OC(C)C(C)C1O)CC(O)C2C(=O)N1CCC(N)C1 (centres unmarked) [FE]
MIC (Average Minimum Inhibition Concentration) [2]: 0.531 µM

CC1C=CC=CC=CC=CC=CC=CC=CC(OC2OC(C)C(O)C(N)C2O)CC2OC(O)(CC(O)CC(O)C(O)CCC(O)CC(O)CC(=O)OC(C)C(C)C1O)CC(O)C2C(=O)NCCOC(F)F (centres unmarked) [EW]
MIC (Average Minimum Inhibition Concentration) [2]: 0.500 µM

COC(=O)C(CCCNC(=N)N)NC(=O)C1C(O)CC2(O)CC(O)CC(O)C(O)CCC(O)CC(O)CC(=O)OC(C)C(C)C(O)C(C)C=CC=CC=CC=CC=CC=CC=CC(OC3OC(C)C(O)C(N)C3O)CC1O2 (centres unmarked) [DQ]
MIC (Average Minimum Inhibition Concentration) [2]: 0.406 µM

CC1C=CC=CC=CC=CC=CC=CC=CC(OC2OC(C)C(O)C(N)C2O)CC2OC(O)(CC(O)CC(O)C(O)CCC(O)CC(O)CC(=O)OC(C)C(C)C1O)CC(O)C2C(=O)NCCCNC(N)=O (centres unmarked) [EQ]
MIC (Average Minimum Inhibition Concentration) [2]: 0.484 µM

CC1C=CC=CC=CC=CC=CC=CC=CC(OC2OC(C)C(O)C(N)C2O)CC2OC(O)(CC(O)CC(O)C(O)CCC(O)CC(O)CC(=O)OC(C)C(C)C1O)CC(O)C2C(=O)NC1CC(N)C(O)C(O)C1O (centres unmarked) [FI]
MIC (Average Minimum Inhibition Concentration) [2]: 0.172 µM

CC1C=CC=CC=CC=CC=CC=CC=CC(OC2OC(C)C(O)C(N)C2O)CC2OC(O)(CC(O)CC(O)C(O)CCC(O)CC(O)CC(=O)OC(C)C(C)C1O)CC(O)C2C(=O)NC(CC(N)=O)C(N)=O (centres unmarked) [FZ]
MIC (Average Minimum Inhibition Concentration) [2]: 0.316 µM

CC1C=CC=CC=CC=CC=CC=CC=CC(OC2OC(C)C(O)C(N)C2O)CC2OC(O)(CC(O)CC(O)C(O)CCC(O)CC(O)CC(=O)OC(C)C(C)C1O)CC(O)C2C(=O)NC(CO)C(N)=O (centres unmarked) [GF]
MIC (Average Minimum Inhibition Concentration) [2]: 0.324 µM

CC1C=CC=CC=CC=CC=CC=CC=CC(OC2OC(C)C(O)C(N)C2O)CC2OC(O)(CC(O)CC(O)C(O)CCC(O)CC(O)CC(=O)OC(C)C(C)C1O)CC(O)C2C(=O)NCCOCC(N)=O (centres unmarked) [FD]
MIC (Average Minimum Inhibition Concentration) [2]: 0.516 µM

CC1C=CC=CC=CC=CC=CC=CC=CC(OC2OC(C)C(O)C(N)C2O)CC2OC(O)(CC(O)CC(O)C(O)CCC(O)CC(O)CC(=O)OC(C)C(C)C1O)CC(O)C2C(=O)NCCOCCN (centres unmarked) [DP]
MIC (Average Minimum Inhibition Concentration) [2]: 0.391 µM
